Source: PubChem BioAssay AID1259407 (Chemical Carcinogenesis Research Information System (CCRIS), 2018)
Calls of active or inactive are those of the source. How the calls were made is not given here.

Tested on: CCRIS mutagenicity, Ames/micronucleus/aberration tests
Experiment: CCRIS mutagenicity studies
[1] = Test System: AMES SALMONELLA TYPHIMURIUM, Strain/Indicator: TA97, Metabolic Activation: NONE, Method: PREINCUBATION
[2] = Test System: AMES SALMONELLA TYPHIMURIUM, Strain/Indicator: TA98, Metabolic Activation: HAMSTER, LIVER, S-9, AROCLOR 1254 (10%), Method: PREINCUBATION
[3] = Test System: AMES SALMONELLA TYPHIMURIUM, Strain/Indicator: TA98, Metabolic Activation: HAMSTER, LIVER, S-9, AROCLOR 1254 (30%), Method: PREINCUBATION
[4] = Test System: AMES SALMONELLA TYPHIMURIUM, Strain/Indicator: TA98, Metabolic Activation: NONE, Method: PREINCUBATION
[5] = Test System: AMES SALMONELLA TYPHIMURIUM, Strain/Indicator: TA98, Metabolic Activation: RAT, LIVER, S-9, AROCLOR 1254 (10%), Method: PREINCUBATION
[6] = Test System: AMES SALMONELLA TYPHIMURIUM, Strain/Indicator: TA98, Metabolic Activation: RAT, LIVER, S-9, AROCLOR 1254 (30%), Method: PREINCUBATION
[7] = Test System: AMES SALMONELLA TYPHIMURIUM, Strain/Indicator: TA100, Metabolic Activation: HAMSTER, LIVER, S-9, AROCLOR 1254 (10%), Method: PREINCUBATION
[8] = Test System: AMES SALMONELLA TYPHIMURIUM, Strain/Indicator: TA100, Metabolic Activation: HAMSTER, LIVER, S-9, AROCLOR 1254 (30%), Method: PREINCUBATION
[9] = Test System: AMES SALMONELLA TYPHIMURIUM, Strain/Indicator: TA100, Metabolic Activation: NONE, Method: PREINCUBATION
[10] = Test System: AMES SALMONELLA TYPHIMURIUM, Strain/Indicator: TA1535, Metabolic Activation: NONE, Method: PREINCUBATION
[11] = Test System: AMES SALMONELLA TYPHIMURIUM, Strain/Indicator: TA1535, Metabolic Activation: RAT, LIVER, S-9, AROCLOR 1254 (10 OR 30%), Method: PREINCUBATION
[12] = Test System: AMES SALMONELLA TYPHIMURIUM, Strain/Indicator: TA98, Metabolic Activation: NONE, Method: STANDARD PLATE
[13] = Test System: AMES SALMONELLA TYPHIMURIUM, Strain/Indicator: TA100, Metabolic Activation: NONE, Method: STANDARD PLATE

N#CCC#N
mutagenic call (Test System: AMES SALMONELLA TYPHIMURIUM, Strain/Indicator: TA97, Metabolic Activation: HAMSTER, LIVER, S-9, AROCLOR 1254 (10%), Method: PREINCUBATION): inactive; negative
mutagenic call (Test System: AMES SALMONELLA TYPHIMURIUM, Strain/Indicator: TA97, Metabolic Activation: HAMSTER, LIVER, S-9, AROCLOR 1254 (30%), Method: PREINCUBATION): inactive; negative
mutagenic call [1]: inactive; negative
mutagenic call (Test System: AMES SALMONELLA TYPHIMURIUM, Strain/Indicator: TA97, Metabolic Activation: RAT, LIVER, S-9, AROCLOR 1254 (10%), Method: PREINCUBATION): inactive; negative
mutagenic call (Test System: AMES SALMONELLA TYPHIMURIUM, Strain/Indicator: TA97, Metabolic Activation: RAT, LIVER, S-9, AROCLOR 1254 (30%), Method: PREINCUBATION): inactive; negative
mutagenic call [2]: inactive; negative
mutagenic call [3]: inactive; negative
mutagenic call [4]: inactive; negative
mutagenic call [5]: inactive; negative
mutagenic call [6]: inactive; negative
mutagenic call [7]: inactive; negative
mutagenic call [8]: inactive; negative
mutagenic call [9]: inactive; negative
mutagenic call (Test System: AMES SALMONELLA TYPHIMURIUM, Strain/Indicator: TA100, Metabolic Activation: RAT, LIVER, S-9, AROCLOR 1254 (10 OR 30%), Method: PREINCUBATION): inactive; negative
mutagenic call (Test System: AMES SALMONELLA TYPHIMURIUM, Strain/Indicator: TA1535, Metabolic Activation: HAMSTER, LIVER, S-9, AROCLOR 1254 (10%), Method: PREINCUBATION): inactive; negative
mutagenic call (Test System: AMES SALMONELLA TYPHIMURIUM, Strain/Indicator: TA1535, Metabolic Activation: HAMSTER, LIVER, S-9, AROCLOR 1254 (30%), Method: PREINCUBATION): inactive; negative
mutagenic call [10]: inactive; negative
mutagenic call [11]: inactive; negative

ClC(Cl)=Cc1c(Cl)c(Cl)c(Cl)c(Cl)c1Cl
mutagenic call [12]: inactive; negative
mutagenic call (Test System: AMES SALMONELLA TYPHIMURIUM, Strain/Indicator: TA98, Metabolic Activation: RAT, LIVER, S-9, AROCLOR 1254, Method: STANDARD PLATE): inactive; negative
mutagenic call [13]: inactive; negative
mutagenic call (Test System: AMES SALMONELLA TYPHIMURIUM, Strain/Indicator: TA100, Metabolic Activation: RAT, LIVER, S-9, AROCLOR 1254, Method: STANDARD PLATE): inactive; negative

CCC(C)(C)C
mutagenic call (Test System: AMES SALMONELLA TYPHIMURIUM, Strain/Indicator: TA97, Metabolic Activation: HAMSTER, LIVER, S-9, AROCLOR 1254 (10 OR 30%), Method: PREINCUBATION): inactive; negative
mutagenic call [1]: inactive; negative
mutagenic call (Test System: AMES SALMONELLA TYPHIMURIUM, Strain/Indicator: TA97, Metabolic Activation: RAT, LIVER, S-9, AROCLOR 1254 (10 OR 30%), Method: PREINCUBATION): inactive; negative
mutagenic call [2]: inactive; negative
mutagenic call (Test System: AMES SALMONELLA TYPHIMURIUM, Strain/Indicator: TA98, Metabolic Activation: HAMSTER, LIVER, S-9, AROCLOR 1254 (30%), Method: DESICCATOR): inactive; negative
mutagenic call [3]: inactive; negative
mutagenic call (Test System: AMES SALMONELLA TYPHIMURIUM, Strain/Indicator: TA98, Metabolic Activation: NONE, Method: DESICCATOR): inactive; negative
mutagenic call [4]: inactive; negative
mutagenic call [5]: inactive; negative
mutagenic call (Test System: AMES SALMONELLA TYPHIMURIUM, Strain/Indicator: TA98, Metabolic Activation: RAT, LIVER, S-9, AROCLOR 1254 (30%), Method: DESICCATOR): inactive; negative
mutagenic call [6]: inactive; negative
mutagenic call [7]: inactive; negative
mutagenic call (Test System: AMES SALMONELLA TYPHIMURIUM, Strain/Indicator: TA100, Metabolic Activation: HAMSTER, LIVER, S-9, AROCLOR 1254 (30%), Method: DESICCATOR): inactive; negative
mutagenic call [8]: inactive; negative
mutagenic call (Test System: AMES SALMONELLA TYPHIMURIUM, Strain/Indicator: TA100, Metabolic Activation: NONE, Method: DESICCATOR): inactive; negative
mutagenic call [9]: inactive; negative
mutagenic call (Test System: AMES SALMONELLA TYPHIMURIUM, Strain/Indicator: TA100, Metabolic Activation: RAT, LIVER, S-9, AROCLOR 1254 (10%), Method: PREINCUBATION): inactive; negative
mutagenic call (Test System: AMES SALMONELLA TYPHIMURIUM, Strain/Indicator: TA100, Metabolic Activation: RAT, LIVER, S-9, AROCLOR 1254 (30%), Method: DESICCATOR): inactive; negative
mutagenic call (Test System: AMES SALMONELLA TYPHIMURIUM, Strain/Indicator: TA100, Metabolic Activation: RAT, LIVER, S-9, AROCLOR 1254 (30%), Method: PREINCUBATION): inactive; negative
mutagenic call (Test System: AMES SALMONELLA TYPHIMURIUM, Strain/Indicator: TA1535, Metabolic Activation: HAMSTER, LIVER, S-9, AROCLOR 1254 (10 OR 30%), Method: PREINCUBATION): inactive; negative
mutagenic call [10]: inactive; negative
mutagenic call [11]: inactive; negative

O=NN(CCCl)C(=O)NC1CCCCC1
mutagenic call (End Point: IN VITRO CHROMOSOMAL ABERRATIONS, Test System: HUMAN HCT116/3-6 CELLS, Metabolic Activation: NONE): active; positive
mutagenic call (End Point: IN VITRO CHROMOSOMAL ABERRATIONS, Test System: HUMAN HCT116 CELLS, Metabolic Activation: NONE): active; positive
mutagenic call (End Point: IN VITRO CHROMOSOMAL ABERRATIONS, Test System: HUMAN MT1 CELLS, Metabolic Activation: NONE): active; positive
mutagenic call (End Point: IN VITRO CHROMOSOMAL ABERRATIONS, Test System: HUMAN TK6 CELLS, Metabolic Activation: NONE): active; positive
mutagenic call (Test System: AMES SALMONELLA TYPHIMURIUM, Strain/Indicator: TA97, Metabolic Activation: NONE, Method: STANDARD PLATE): inactive; negative
mutagenic call (Test System: AMES SALMONELLA TYPHIMURIUM, Strain/Indicator: TA97, Metabolic Activation: RAT, LIVER, S-9, PHENOBARBITAL AND ALPHA-NAPHTHOFLAVONE, Method: STANDARD PLATE): inactive; negative
mutagenic call [4]: inactive; negative
mutagenic call [12]: inactive; negative
mutagenic call (Test System: AMES SALMONELLA TYPHIMURIUM, Strain/Indicator: TA98, Metabolic Activation: RAT, LIVER, S-9, PHENOBARBITAL AND ALPHA-NAPHTHOFLAVONE, Method: STANDARD PLATE): inactive; negative
mutagenic call (Test System: AMES SALMONELLA TYPHIMURIUM, Strain/Indicator: TA98, Metabolic Activation: S-9, Method: PREINCUBATION): inactive; negative
mutagenic call [9]: active; positive
mutagenic call [13]: active; positive
mutagenic call (Test System: AMES SALMONELLA TYPHIMURIUM, Strain/Indicator: TA100, Metabolic Activation: RAT, LIVER, S-9, PHENOBARBITAL AND ALPHA-NAPHTHOFLAVONE, Method: STANDARD PLATE): active; positive
mutagenic call (Test System: AMES SALMONELLA TYPHIMURIUM, Strain/Indicator: TA100, Metabolic Activation: S-9, Method: PREINCUBATION): active; positive
mutagenic call (Test System: AMES SALMONELLA TYPHIMURIUM, Strain/Indicator: TA1535, Metabolic Activation: NONE, Method: STANDARD PLATE): active; positive
mutagenic call (Test System: AMES SALMONELLA TYPHIMURIUM, Strain/Indicator: TA1535, Metabolic Activation: RAT, LIVER, S-9, PHENOBARBITAL AND ALPHA-NAPHTHOFLAVONE, Method: STANDARD PLATE): active; positive
mutagenic call (Test System: CHINESE HAMSTER V-79, Strain/Indicator: V-79/6-THIOGUANINE, Metabolic Activation: NONE, Method: STANDARD PLATE): active; positive
